Drawing on ChEMBL document CHEMBL2424513, “Design, synthesis and biological studies of survivin dimerization modulators that prolong mitotic cycle” (Bioorg Med Chem Lett, 2013), this text covers Activity, fold change (FC) and TIME for three compounds.

Structures are written as SMILES. Active and inactive are the calls of the source. The rule behind the calls is not given here.

The target in experiment [1] is Baculoviral IAP repeat-containing protein 5 (Homo sapiens) (UniProt O15392). Briefly: Modulation of GFP-tagged survivin dimerization in human PC3 cells assessed as reduction in cell number at 50 to 100 nM after 72 hrs by real-time video microscopy relative to control. The format is cell-based. To be noted: PC-3.
Chain of Baculoviral IAP repeat-containing protein 5 (Homo sapiens) (O15392 whole entry): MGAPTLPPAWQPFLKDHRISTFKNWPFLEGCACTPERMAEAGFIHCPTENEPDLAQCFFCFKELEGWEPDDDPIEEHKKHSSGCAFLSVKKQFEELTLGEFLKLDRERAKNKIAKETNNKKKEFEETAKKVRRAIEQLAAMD
For experiment [2] the target is unchanged. Briefly: Modulation of GFP-tagged survivin dimerization in human PC3 cells assessed as defect in mitotic progression at 50 to 100 nM after 72 hrs by real-time video microscopy. The format is cell-based. To be noted: PC-3.
For experiment [3] the target is unchanged. Briefly: Modulation of GFP-tagged survivin dimerization in human PC3 cells assessed as distorted, diffused or decondensed CPC organization at 10 nM after 72 hrs by real-time video microscopy relative to control. Format: cell-based. To be noted: PC-3.
Experiment [4] has the same target. As to the kind of experiment: Modulation of GFP-tagged survivin dimerization in human PC3 cells assessed as defect in mitotic progression at 10 nM after 72 hrs by real-time video microscopy. Format: cell-based. To be noted: PC-3.
For experiment [5] the target is unchanged. Briefly: Modulation of GFP-tagged survivin dimerization in human PC3 cells assessed as distorted, diffused or decondensed CPC organization at 50 to 100 nM after 72 hrs by real-time video microscopy relative to control. The format is cell-based. Particulars: PC-3.
For experiment [6] the target is unchanged. As to the kind of experiment: Modulation of GFP-tagged survivin dimerization in HUVEC assessed as defect in mitotic progression at 50 to 100 nM after 48 hrs by real-time video microscopy relative to control.
Experiment [7] shares this target. As to the kind of experiment: Modulation of GFP-tagged survivin dimerization in HUVEC assessed as defect in mitotic progression at 10 nM after 48 hrs by real-time video microscopy.
Experiment [8] has the same target. Briefly: Modulation of GFP-tagged survivin dimerization in HUVEC assessed as distorted, diffused or decondensed CPC organization at 10 nM after 48 hrs by real-time video microscopy relative to control.
Experiment [9] shares this target. As to the kind of experiment: Modulation of GFP-tagged survivin dimerization in HUVEC assessed as reduction in cell number after 48 hrs by real-time video microscopy.
Experiment [10] has the same target. As to the kind of experiment: Modulation of GFP-tagged survivin dimerization in HUVEC assessed as reduction in cell number at 50 to 100 nM after 48 hrs by real-time video microscopy relative to control.
Experiment [11] shares this target. As to the kind of experiment: Modulation of GFP-tagged survivin dimerization in HUVEC assessed as reduction in cell number at 50 to 100 nM by real-time video microscopy. Particulars: TDE = time-dependent effect.
The target is the same in experiment [12]. Briefly: Modulation of GFP-tagged survivin dimerization in HUVEC assessed as distorted, diffused or decondensed CPC organization at 50 to 100 nM after 48 hrs by real-time video microscopy relative to control.
Experiment [13] shares this target. As to the kind of experiment: Modulation of GFP-tagged survivin dimerization in HUVEC assessed as time length of mitosis at 100 nM after 48 hrs by real-time video microscopy (reference value: 51.2 +/- 2.3 mins).

As to `N#Cc1c(-c2cccc(OCc3ccccc3)c2)cc(-c2cc(Cl)cc(I)c2O)[nH]c1=O`, the Activity was 50% in [1], “Dose-dependent effect” in experiment [9], 50% in experiment [10] and “tde” in experiment [11]. Also, the result in experiment [2], in experiment [5], in [6] and in [12] was Active. The outcome in experiment [3], in experiment [4], in [7] and in [8] was inactive.

For the compound `N#Cc1c(-c2cc(OCc3ccccc3)cc(OCc3ccccc3)c2)cc(-c2cc(Cl)ccc2O)[nH]c1=O`, the result in [2], in experiment [3], in experiment [4], in [6], in experiment [7] and in experiment [8] was inactive. Further, the fold change (FC) in experiment [2] and in experiment [6] was 2 throughout. The result in [5] and in [12] was Active. The Activity result is “Dose-dependent effect” in experiment [9] and “tde” in experiment [11]. Moreover, in [13], the TIME came to 2.57 h.

Turning to `N#Cc1c(-c2ccccc2)cc(-c2cc(Cl)ccc2O)[nH]c1=O`, the outcome in [2] and in experiment [6] was inactive. The TIME in experiment [13] was determined as 1.04 h.
